Source: patent US6699660B2, “Immediate early genes and methods of use therefor” (The Johns Hopkins University School of Medicine, priority 1998, dated 2004)

How the values were obtained:
[1] = system: L100 mRNA; assay: 3-NP ischemia model, Northern blot of total brain RNA; type: in vivo, rat; details: 3-NP 20 mg/kg i.p., three hours post-injection, total brain RNA without cerebellum; PSL - background; untreated 30.95
Method: (§1) In another study, the expression pattern of L100 and L119 was determined using two models for ischemia. Briefly, neurons degenerate in brain and spinal cord after acute insults (e.g., stroke, cardiac arrest, and trauma) and during progressive, adult-onset diseases (e.g., amyotrophic lateral sclerosis, and Alzheimer's disease). Impaired energy metabolism plays an important role in neuronal cell death after brain ischemia, and apoptosis has been implicated in cell death induced by metabolic impairment. The irreversible inhibitor of succinate dehydrogenase in the mitochondria, 3-nitroproplonic acid (3-NP), inhibits oxidative phosphorylation and causes intracellular hypoxia. Thus, one model used to study ischemia involves intrastriatal injections of 3-NP, which is known to produce selective cell death similar to that observed in transient ischemia and Huntington's disease (McLaughlin et al., J. Neurochem 70:2406-2415 (1998)). The other model is a global ischemic paradigm that involves a 15 minute insult by complete occlusion of the carotis.
(§2) In the 3-NP study, 220-300 g Wistar rats were intraperitoneally injected with 20 mg/kg body weight. Three hours post-injections, the brain was removed and total RNA prepared. In the global ischemia study, 220-300 g Wistar rats were received a 15 minute insult (bilateral occlusion of the Carotis/arterial pressure=35 mm Hg). One hour later, the rats received a reperfusion followed by immediate brain dissection and total RNA preparation. Untreated rats were used as controls for each study. Ten (10) μg of total rat brain RNA (without cerebellum) was loaded per lane and blotted. Probes were prepared from the 3′ untranslated regions of L100 and L119. The Northern blot data was collected using a Phosphoimager (FLA2000 Fuji, Tina software) and expressed as PSL—background.

[2] = system: L119 mRNA; assay: as above; type: in vivo, rat; details: 3-NP 20 mg/kg i.p., three hours post-injection, total brain RNA without cerebellum; PSL - background; untreated 55.48
Method: as §1, §2

[3] = system: GAPDH mRNA; assay: as above; type: in vivo, rat; details: 3-NP 20 mg/kg i.p., three hours post-injection, total brain RNA without cerebellum; PSL - background; untreated 487.02
Method: as §1, §2

[4] = system: c-fos mRNA; assay: as above; type: in vivo, rat; details: 3-NP 20 mg/kg i.p., three hours post-injection, total brain RNA without cerebellum; PSL - background; untreated 18.1
[5] = system: L100 mRNA; assay: PTZ-induced seizures, mRNA expression by Northern blot; type: in vivo, rat; details: for Fold increase in L100 mRNA expression upon PTZ treatment: vs PBS; for L100 mRNA expression normalized to GADPH expression: Integral PSL - background PSL
Method: (§3) PTZ-induced seizures is a model used to study epilepsy and ischemia. Briefly, 300-350 g male Sprague-Dawley rats were intrapertoneally injected with either 50 mg/kg body weight of PTZ or PBS. Total RNA samples from the hippocampus, cortex, and cerebellum were prepared from treated rats at 20 minutes, 6 hours, and 24 hours post-injection. This RNA then was used to measure mRNA expression by Northern blot analysis. Control mRNA measurements included c-fos and GAPDH. A Phosphoimager FLA2000 (Fuji) was used to analyze the data, which was expressed as the Integral PSL—background PSL (1D evaluation with Aida version 2.0).

[6] = system: L119 mRNA; assay: as above; type: in vivo, rat; details: for Fold increase in L119 mRNA expression upon PTZ treatment: 20 min, vs PBS; for L119 mRNA expression normalized to GADPH expression: 20 min after PTZ 50 mg/kg i.p., Integral PSL - background PSL
Method: as §3

[7] = system: R113 mRNA; assay: as above; type: in vivo, rat; details: hippocampus, 6 hour, vs PBS
Method: as §3

[8] = system: R286 mRNA; assay: PTZ-induced seizures, in situ hybridization; type: in vivo, rat
Method: (§4) For in situ hybridization, Dig-labeled cRNA probes were used as described elsewhere (Kuner et al., Science 283:5398 (1999)). Specifically, R286 mRNA expression was the highest in the cortex and hippocampus while being moderately high in the cerebellar granule cells, brainstem nuclei, several lateral and medial thalamic nuclei, olfactory bulb, and striatum. […] Briefly, a probe from the 3′ untranslated region of R286 was used to hybridize a Northern blot containing 2 μg polyA^+ RNA from hippocampus from brains of untreated rats as well as rats receiving the multiple MECS treatment. After one day of exposure using the phosphoimager FLA2000 (Fuji), an upregulation of R286 mRNA was detected in the hippocampus (3.72 fold induction) collected four hours after the last MECS treatment. An additional Northern blot analysis using 10 μg total RNA from hippocampus from untreated rats and rats receiving the multiple MECS treatment was performed.
(§5) In addition, rats that developed seizures following intraperitoneal injection of kainate or PTZ were analyzed for the expression of R286 mRNA in addition to the mRNA of other LEG clones (Tables III and V).

[9] = system: R286 mRNA; assay: PTZ-induced seizures, mRNA expression by Northern blot; type: in vivo, rat; details: hippocampus, 6 hour, vs PBS
Method: as §3, §5

[10] = system: L100 mRNA; assay: kainate-induced seizures, in situ hybridization; type: in vivo, rat; details: six hours following kainate injection
Method: For in situ hybridization, Dig-labeled cRNA probes were used as described elsewhere (Kuner et al., Science 283:5398 (1999)). […] Specifically, L100 mRNA expression was induced 17.2 fold by the multiple MECS treatment as determined from Northern blot data using total RNA from rat hippocampus (Table I).
(§6) Kainate-induced seizures is a model used to study epilepsy. Briefly, 300-350 g male Sprague-Dawley rats were intrapertoneally injected with either 10 mg/kg body weight of kainate or PBS. RNA samples from the hippocampus, cortex, and cerebellum were prepared from treated rats at 1.5, 6, and 24 hours post-injection. This RNA then was used to measure mRNA expression by Northern blot and RT-PCR analysis. Control mRNA measurements included c-fos, GAPDH, NO-38, and ATF-4 for the Northern blot analysis, and Hsp70, c-jun, Zif268, c-fos, Clathrin, and β-actin for the RT-PCR analysis. A Phosphoimager FLA2000 (Fuji) was used to analyze the data, which was expressed as the Integral PSL—background PSL (1D evaluation with Aida version 2.0).

[11] = system: L100 mRNA; assay: kainate-induced seizures, mRNA expression by Northern blot and RT-PCR; type: in vivo, rat; details: for L100 mRNA expression normalized to GADPH expression: Integral PSL - background PSL; for Fold increase in L100 mRNA expression upon kainate treatment: vs PBS
Method: as §6

[12] = system: L119 mRNA; assay: as above; type: in vivo, rat; details: for L119 mRNA expression normalized to GADPH expression: Integral PSL - background PSL; for Fold increase in L119 mRNA expression upon kainate treatment: vs PBS
Method: as §6

[13] = system: A013 mRNA; assay: as above; type: in vivo, rat; details: hippocampus, 1.5 hour, vs PBS
Method: as §6

[14] = system: L094 mRNA; assay: as above; type: in vivo, rat; details: hippocampus, 1.5 hour, vs PBS
Method: as §6

[15] = system: R113 mRNA; assay: as above; type: in vivo, rat; details: hippocampus, 1.5 hour, vs PBS
Method: as §6

[16] = system: R286 mRNA; assay: kainate-induced seizures, in situ hybridization; type: in vivo, rat
Method: as §4, §5

[17] = system: R010 expression in PC12 cells; assay: NGF treatment of PC12 cells, R010 expression; type: cell-based
[18] = cortex, 6 hour after kainate 10 mg/kg i.p.
[19] = cortex, 24 hour after kainate 10 mg/kg i.p.
[20] = hippocampus, 1.5 hour after kainate 10 mg/kg i.p.
[21] = hippocampus, 6 hour after kainate 10 mg/kg i.p.
[22] = hippocampus, 24 hour after kainate 10 mg/kg i.p.

O=C(O)CC[N+](=O)[O-] [3-NP, 3-nitroproplonic acid]
L100 mRNA expression after 3-NP treatment [1]: 43.82 | L119 mRNA expression after 3-NP treatment [2]: 41.94 | GAPDH mRNA expression after 3-NP treatment [3]: 587.51 | c-fos mRNA expression after 3-NP treatment [4]: 26.64

C1CCc2nnnn2CC1 [PTZ, pentylenetetrazole]
expression of L100 mRNA when acute seizures were induced by PTZ treatment ([5]; PTZ 50 mg/kg i.p.): strongly upregulated | Fold increase in L100 mRNA expression upon PTZ treatment ([5]; cortex, 20 min): 2.84 fold | L100 mRNA expression normalized to GADPH expression ([5]; cortex, 20 min after PTZ 50 mg/kg i.p.): 2719 | L100 mRNA expression normalized to GADPH expression ([5]; cortex, 6 hour after PTZ 50 mg/kg i.p.): 3740 | Fold increase in L100 mRNA expression upon PTZ treatment ([5]; cortex, 6 hour): 3.22 fold | L100 mRNA expression normalized to GADPH expression ([5]; cortex, 24 hour after PTZ 50 mg/kg i.p.): 1825 | Fold increase in L100 mRNA expression upon PTZ treatment ([5]; cortex, 24 hour): 1.55 fold | Fold increase in L100 mRNA expression upon PTZ treatment ([5]; hippocampus, 20 min): 3.1 fold | L100 mRNA expression normalized to GADPH expression ([5]; hippocampus, 20 min after PTZ 50 mg/kg i.p.): 1637 | L100 mRNA expression normalized to GADPH expression ([5]; hippocampus, 6 hour after PTZ 50 mg/kg i.p.): 1992 | Fold increase in L100 mRNA expression upon PTZ treatment ([5]; hippocampus, 6 hour): 2.33 fold | L100 mRNA expression normalized to GADPH expression ([5]; hippocampus, 24 hour after PTZ 50 mg/kg i.p.): 1903 | Fold increase in L100 mRNA expression upon PTZ treatment ([5]; hippocampus, 24 hour): 1.97 fold | Fold increase in L119 mRNA expression upon PTZ treatment ([6]; cortex): 2.78 fold | L119 mRNA expression normalized to GADPH expression ([6]; cortex): 1605 | Fold increase in L119 mRNA expression upon PTZ treatment ([6]; hippocampus): 2.82 fold | L119 mRNA expression normalized to GADPH expression ([6]; hippocampus): 965 | Fold increase in R113 mRNA expression upon PTZ treatment [7]: 2.0 fold | R286 mRNA expression by in situ hybridization ([8]; 20 minutes post-PTZ injection): no upregulation | R286 mRNA expression by in situ hybridization ([8]; 6 hours post-PZT injection, hippocampal pyramidal cell layer, cortex, thalamus, cerebellar Purkinje cell layer): mildly upregulated | Fold increase in R286 mRNA expression upon PTZ treatment [9]: 2.6 fold

C=C(C)[C@H]1CN[C@H](C(=O)O)[C@H]1CC(=O)O [kainate]
L100 mRNA regulation by in situ hybridization ([10]; dentate gyrus, CA3 and CA4 of hippocampus, entorrhinal cortex, cingulum, fimbria): strong upregulation | L100 mRNA regulation by in situ hybridization ([10]; thalamic nuclei, temporal, parietal, frontal, medial orbital and cingulate cortex, cerebellar granule cells): Moderate upregulation | L100 mRNA expression normalized to GADPH expression [11, 18]: 290 | Fold increase in L100 mRNA expression upon kainate treatment ([11]; cortex, 6 hour): 3.58 fold | L100 mRNA expression normalized to GADPH expression [11, 19]: 131 | Fold increase in L100 mRNA expression upon kainate treatment ([11]; cortex, 24 hour): 1.52 fold | L100 mRNA expression normalized to GADPH expression [11, 20]: 85251 | Fold increase in L100 mRNA expression upon kainate treatment ([11]; hippocampus, 1.5 hour): 18.44 fold | L100 mRNA expression normalized to GADPH expression [11, 21]: 15444 | Fold increase in L100 mRNA expression upon kainate treatment ([11]; hippocampus, 6 hour): 1.97 fold | L100 mRNA expression normalized to GADPH expression [11, 22]: 16551 | Fold increase in L100 mRNA expression upon kainate treatment ([11]; hippocampus, 24 hour): 4.20 fold | expression of L100 mRNA when acute seizures were induced by kainate treatment ([11]; kainate 10 mg/kg i.p.): strongly upregulated | L119 mRNA expression normalized to GADPH expression [12, 18]: 1262 | L119 mRNA expression normalized to GADPH expression [12, 19]: 505 | L119 mRNA expression normalized to GADPH expression [12, 20]: 69982 | Fold increase in L119 mRNA expression upon kainate treatment ([12]; hippocampus, 1.5 hour): 24.85 fold | L119 mRNA expression normalized to GADPH expression [12, 21]: 11519 | Fold increase in L119 mRNA expression upon kainate treatment ([12]; hippocampus, 6 hour): 2.51 fold | L119 mRNA expression normalized to GADPH expression [12, 22]: 12944 | Fold increase in L119 mRNA expression upon kainate treatment ([12]; hippocampus, 24 hour): 4.64 fold | Fold increase in A013 mRNA expression upon kainate treatment [13]: 9.8 fold | Fold increase in L094 mRNA expression upon kainate treatment [14]: 3.6 fold | Fold increase in R113 mRNA expression upon kainate treatment [15]: 2.0 fold | R286 mRNA expression by in situ hybridization ([16]; 1.5 hours post-kainate injection): no upregulation | R286 mRNA expression by in situ hybridization ([16]; 6 hours post-kainate injection, hippocampal pyramidal cell layer, cortex, thalamus, cerebellar Purkinje cell layer): mildly upregulated

NGF: NGF used to treat PC12 cells
R010 expression in vitro [17]: rapidly induced
